In publication PMC9386018, “A lymphatic-absorbed multi-targeted kinase inhibitor for myelofibrosis therapy” (Nature Communications, 2022):
Several values for one entry are separate records, joined by “and”; a condition that tells them apart may be missing. Identical values can stand only once.

Assays:
[1] = tested on: GFP-positive MPL^W515L cells; test: MPL^W515L MF mouse model Study 2: GFP-positive cell frequencies; assay type: in vivo; conditions: Study 2, MPL^W515L mice, oral 400 mg kg^−1 daily, 14 d
Description: The human megakaryoblastic cell line, SET-2 (ATCC), was maintained in RPMI 1640 supplemented with 20% FBS and incubated for 16 h at 10^6 cells mL^−1 with LP-182 or vehicle (DMSO; dimethyl sulfoxide), then washed in ice-cold PBS, and collected for flow cytometry analysis. Single-cell suspensions of mouse spleen were prepared from MPL^W515L MF mice (below) in RPMI 1640 supplemented with 5% FCS. Red blood cells were lysed by ammonium chloride-mediated red cell lysis (RCL) buffer and passed through a nylon mesh, and then cells were counted. For intracellular phospho-protein staining, SET-2 or spleen cells were fixed and then permeabilized using BD Phospho-flow fixation buffer and Perm-Buffer III (BD biosciences) according to the manufacturer’s protocol. Intracellular phospho-protein staining was performed using fluorochrome-conjugated antibodies, pAKT (pS473)-Alexa Fluor 647 (MB89-61) or pERK1/2 (pT202/pY204)-Alexa Fluor 647 (20 A). […] Flow cytometry was performed on a FACS Fortessa (Becton, Dickinson and Co.) using FACSDiVa software, and data analyzed using FlowJo software (Tree Star). […]
Generation of the MPL^W515L mutant MF mouse model was similar to previously described methods. […] Development of MF was evaluated by spleen volumes using MRI beginning ~14 d following bone marrow transplantation (BMT) as outlined below, continuing weekly until end of the study. […]

[2] = Microsomal stability; assay type: in vitro ADME; conditions: mouse, liver microsomes; ~1 µM, NADPH, 37 °C; read-out: t1/2 in murine liver microsomes
Description: Quantitative determination of LP-182 stability in murine liver microsomes was performed by the University of Michigan Pharmacokinetics Core. […]; in 100 mM phosphate buffer, 3 mM MgCl2) to a final concentration of […], and then reactions were sampled over 60 min. Aliquots were removed at the designated time points, quenched by addition of 4 volumes of cold acetonitrile, then centrifuged at 10,000 x g for 5 min to pellet protein precipitates. […] The natural log peak area ratio of compound to internal standard (Acmpd/AIstd) was plotted against time to determine pharmacokinetic properties of microsomal stability. All analyses, data processing, and calculations were performed and provided by the core. Data was generated from a single independent experiment.

[3] = target: BRAF (Homo sapiens, UniProt P15056); test: Target kinase 10-point inhibition assay, BRAF; assay type: biochemical; conditions: replicates
From the text: The average percent kinase inhibition from replicate data was ranked low to high, converted to a compatible identifier format, then input into Coral Human Kinome Visualization software for presentation analysis. […] Scaling of evolutionary distance for PI kinases is only relative and is based on literature analysis[62],[63]. Average percent kinome inhibition values from replicate data are supplied in Source Data file. […] Corrected data was normalized to vehicle treated control values, and dose response percent kinase activity was analyzed by non-linear regression for determination of IC50 values.

[4] = Fractionation of lymphatic fluid into lipoprotein fractions by ultracentrifugation; assay type: in vivo; conditions: rat lymphatic fluid, 50 mg kg^−1 intra-duodenal
Description: Briefly, acetonitrile was added to a final concentration of 60–80% to bone marrow, whole blood, plasma, lymphatic fluid, lymphatic proteo-lipid sub-fractions, or mesenteric lymph node samples for compound extraction. Extraction was performed by shaking and/or bead rupture using a Precellys Evolution tissue homogenizer (Bertin Technologies SAS). […] Optimization of MS and MS/MS parameters for MRM quantitation and maximum sensitivity of individual compounds was performed using SCIEX Analyst software (AB Sciex). […] All LC-MS/MS acquisitions were performed with an independent standard curve for each group of analytes and for each individual run. All solvents utilized were of Optima LC-MS Grade (Fisher Scientific). Data was generated from n ≥ 2 individual animals per compound per study condition or dose.

Chain of BRAF (P15056 whole entry): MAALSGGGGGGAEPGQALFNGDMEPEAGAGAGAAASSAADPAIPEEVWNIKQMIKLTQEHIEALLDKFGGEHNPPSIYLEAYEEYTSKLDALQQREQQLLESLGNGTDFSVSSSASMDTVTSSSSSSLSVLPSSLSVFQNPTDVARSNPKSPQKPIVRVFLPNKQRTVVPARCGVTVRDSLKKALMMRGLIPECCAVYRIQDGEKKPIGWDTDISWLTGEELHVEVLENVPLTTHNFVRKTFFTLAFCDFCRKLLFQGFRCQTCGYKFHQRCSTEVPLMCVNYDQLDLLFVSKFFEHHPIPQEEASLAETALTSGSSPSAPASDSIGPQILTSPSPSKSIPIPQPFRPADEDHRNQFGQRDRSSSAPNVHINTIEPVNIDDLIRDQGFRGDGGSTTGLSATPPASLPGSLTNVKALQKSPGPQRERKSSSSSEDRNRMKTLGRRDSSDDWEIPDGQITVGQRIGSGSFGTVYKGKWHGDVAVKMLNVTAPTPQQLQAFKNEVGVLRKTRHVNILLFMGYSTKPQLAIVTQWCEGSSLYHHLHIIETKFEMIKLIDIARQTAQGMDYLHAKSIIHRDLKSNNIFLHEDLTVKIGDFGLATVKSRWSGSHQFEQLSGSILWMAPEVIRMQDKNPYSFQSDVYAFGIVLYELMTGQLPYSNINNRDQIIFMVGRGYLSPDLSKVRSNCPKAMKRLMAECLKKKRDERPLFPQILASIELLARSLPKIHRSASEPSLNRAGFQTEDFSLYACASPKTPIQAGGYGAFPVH

Structure (SMILES): O=C(NOCCOCCOCCOCCC(=O)N1CCN(c2cnc3ccc(-c4cnc(Cl)c(NS(=O)(=O)c5ccc(F)cc5)c4)cc3n2)CC1)c1ccc(F)c(F)c1Nc1ccc(I)cc1F [LP-182, N-(2-(2-(2-(3-(4-(7-(6-chloro-5-((4-fluorophenyl)sulfonamido)pyridin-3-yl)quinoxalin-2-yl)piperazin-1-yl)-3-oxopropoxy)ethoxy)ethoxy)ethoxy)-3,4-difluoro-2-((2-fluoro-4-iodophenyl)amino)benzamide]
- GFP-positive MPL^W515L neutrophil frequency [1]: reduced
- half-life [2]: ~8 min
- activity at 0.000495 µM ([3]; 0.495 nM): 100%
- Kinase Activity (%) ([3]; 0.495 nM, 0.000495 µM): 102% and 96% and 94% and 93%
- activity at 0.00152 µM ([3]; 1.52 nM): 101%
- Kinase Activity (%) ([3]; 1.52 nM, 0.00152 µM): 98% and 95% (2×) and 94%
- activity at 0.00457 µM ([3]; 4.57 nM): 90%
- Kinase Activity (%) ([3]; 4.57 nM, 0.00457 µM): 94% and 95% and 98% and 89% and 93%
- Kinase Activity (%) ([3]; 41.2 nM, 0.0412 µM): 49% and 38% and 54% and 59% and 53% (2×)
- Kinase Activity (%) ([3]; 123 nM, 0.123 µM): 14% and 12% and 41% and 34% (2×) and 38%
- Kinase Activity (%) ([3]; 1110 nM, 1.11 µM): -5% and -3% and 2% (2×) and 4% and 5%
- Kinase Activity (%) ([3]; 3330 nM, 3.33 µM): -5% (2×) and 1% (3×) and 4%
- Kinase Activity (%) ([3]; 10000 nM, 10 µM): -2% and -5% and 2% and 1% and 7% and -1%
- association with VLDL fraction, % of total [4]: 9.7%
- association with chylomicron fraction, % of total [4]: 8.0%
